Test results published in PMC10730852 (Communications Biology, 2023).
Values joined by “and” are separate entries in the source; they are usually repeats but may differ in a detail not shown here. Equal entries are not always repeated. Where two headings read alike, the source gives them in different places. Starred links: 1 amine or outer side, 2 acyl side, 3 side chain; linkers in the order of their positions; H or OH if unused. Positions of bridges follow the written chain, without caps; N, C: chain ends. Non-standard residues stand in square brackets, D forms with d. Residues, ends and D or L forms follow the SMILES beside them. *: point of attachment. X1 = NC1=N[C@@H]([C@H](N[*:1])C(=O)[*:2])C[C@H](O)N1; ΔAla(Z-3-ureido) = NC(=O)N/C=C(\N)C(=O)O; β3hOrn = NCCC[C@H](N)CC(=O)*; Dap = NC[C@H](N)C(=O)O

Experiments:
[1] = parameters: method as in earlier work; conditions: ref Antimicrob. Agents Chemother. 60, 4786, 2016 and Antimicrob. Agents Chemother. 62, e01724, 2018, cited from earlier work
Cph001 [2] = experiment: Coupled enzyme assay and Michaelis-Menten kinetics of Cph001; format: biochemical, Streptosporangium roseum; parameters: initial velocity, Figure 3c iii, Triplicate: unit not given here; conditions: for phosphorylation by Cph001 in couple enzyme assay: 2 mM antibiotic substrate, ATP as phosphate donor, absorbance at 340 nm; for absorbance at 340 nm, Average of triplicate: 2 mM substrate + ATP; for initial velocity, Figure 3c iii, Triplicate / initial velocity, Figure 3c iv, Triplicate: 20 mM CMN IIA; for kcat, phosphate donor varied / Km: in the presence of saturating CMN IIA (20 mM), mean ± SEM, n = 3; for Km: read-out: apparent Km of the phosphate donor
Procedure: The phosphorylation reaction was measured by a coupled enzyme assay as following. […] The reactions were mixed well in a final volume of 200 μL in 96-well plates. The Cph001 activity was assayed by determining the oxidation of NADH at 340 nm. The reaction buffer and enzyme concentration of the Cph reaction was followed by previous study. The 340 nm absorbance changes were detected at 30 °C for every 1 min at a time in 15 min on an EPOCH Microplate Reader (BioTek). All reactions were carried out in triplicate.
The initial velocity data were plotted against substrate concentrations and fit the Michaelis-Menten equation. The Km and Vmax values were calculated based on the Michaelis-Menten equation. GraphPad Prism was used for statistical data analysis. All reactions were carried out in triplicate.

[3] = system: E. coli/pET-22b (Control); experiment: Disk diffusion assay; format: cell-based, E. coli BL21 Rosetta (DE3); conditions: Escherichia coli, 37 °C, 24 hr, read-out: inhibition zones; for zone of inhibition at 12.5 µg/disc: 12.5 μg on disk; for zone of inhibition at 50 µg/disc: 50 μg on disk; for zone of inhibition at 100 µg/disc: 100 μg on disk; for zone of inhibition at 200 µg/disc: 200 μg on disk
Procedure: The E. coli BL21 Rosetta (DE3) strains containing pET22b, and its carrying cph, cph001, cph002, cph003, aph(3′)-Ia, and mphB plasmids were cultured overnight. The cells, respectively, were then diluted to 0.1 OD600 in molten LB agar with 100 μg/mL ampicillin and 500 μM IPTG for the disk diffusion assay. The cells with ampicillin and IPTG were mixed well with molten LB agar and then poured into 10 cm diameter Petri dishes. […] The Petri dishes were placed in the incubator at 37 °C and the inhibition zones were observed after 24 hr.

E. coli/cph001 = experiment: Disk diffusion assay; format: cell-based, E. coli BL21 Rosetta (DE3)
Procedure: (§1) The E. coli BL21 Rosetta (DE3) strains containing pET22b, and its carrying cph, cph001, cph002, cph003, aph(3′)-Ia, and mphB plasmids were cultured overnight. The cells, respectively, were then diluted to 0.1 OD600 in molten LB agar with 100 μg/mL ampicillin and 500 μM IPTG for the disk diffusion assay. The cells with ampicillin and IPTG were mixed well with molten LB agar and then poured into 10 cm diameter Petri dishes. The 7 mm disks were placed onto the LB agar and gently loaded with varying quantities of CMN IIA, CMN IIB, VIO, Kan, and Ery, ranging from 0 to 200 μg. The Petri dishes were placed in the incubator at 37 °C and the inhibition zones were observed after 24 hr.

E. coli/cph = experiment: Disk diffusion assay; format: cell-based, E. coli BL21 Rosetta (DE3); conditions: Escherichia coli, 24 h, read-out: inhibition zones
Procedure: as §1

Cph001 [4] = target: T1, Cph001 (Streptosporangium roseum, UniProt D2B3F1); experiment: Isothermal titration calorimetry (ITC) analysis of Cph001; format: binding
T1 sequence (D2B3F1 1-286): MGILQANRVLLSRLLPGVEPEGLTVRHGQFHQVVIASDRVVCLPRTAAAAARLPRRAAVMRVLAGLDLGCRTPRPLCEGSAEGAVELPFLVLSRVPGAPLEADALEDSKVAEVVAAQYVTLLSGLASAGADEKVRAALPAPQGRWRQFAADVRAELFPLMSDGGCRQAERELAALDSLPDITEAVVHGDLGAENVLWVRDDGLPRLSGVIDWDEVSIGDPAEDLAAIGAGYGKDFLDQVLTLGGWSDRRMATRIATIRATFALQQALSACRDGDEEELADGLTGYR
From the text: The integrated heat areas constitute a differential binding curve that was fitted with a standard single-site binding model by Origin 7.

E. coli/mphB = experiment: Disk diffusion assay; format: cell-based, E. coli BL21 Rosetta (DE3); conditions: Escherichia coli, 24 h, read-out: inhibition zones
Procedure: as §1

[5] = Escherichia coli, 24 h, read-out: inhibition zones

Which MIC ([1]; approximate molar equivalent) does the source give for capreomycin here?
The MIC was 1.5 to 4.5 µM.

And the MIC [1]?
Its MIC is 1 to 3 µg/mL.

For NC[C@H]1O[C@H](O[C@H]2[C@H](O)[C@@H](O[C@H]3O[C@H](CO)[C@@H](O)[C@H](N)[C@H]3O)[C@H](N)C[C@@H]2N)[C@H](O)[C@@H](O)[C@@H]1O [Kan, kanamycin], which “phosphorylation by Cph001 in couple enzyme assay” value (Cph001 [2]) is on record?
Its value is “only capable of phosphorylating VIO”.

What does the source list for NCCC[C@H](N)CC(=O)N[C@H]1CNC(=O)[C@H]([C@H]2C[C@H](O)NC(N)=N2)NC(=O)/C(=C/NC(N)=O)NC(=O)[C@H](CO)NC(=O)[C@H](CO)NC1=O [VIO, viomycin] (β3hOrn-[Dap]SS[ΔAla(Z-3-ureido)][X1]; lactam 1-C)?
zone of inhibition at 12.5 µg/disc [3]: 23.5 mm; zone of inhibition at 50 µg/disc [3]: 27 mm; zone of inhibition at 100 µg/disc [3]: 29 mm; zone of inhibition at 200 µg/disc [3]: 30 mm; resistance in disk diffusion assay (E. coli/cph001; E. coli harboring cph001): resistant; zone of inhibition at 12.5 µg/disc (E. coli/cph001; [5]): 8 mm; zone of inhibition at 50 µg/disc (E. coli/cph001; [5]): 12 mm; zone of inhibition at 100 µg/disc (E. coli/cph001; [5]): 15 mm; zone of inhibition at 200 µg/disc (E. coli/cph001; [5]): 17.5 mm; zone of inhibition at 12.5 µg/disc (E. coli/cph): 8.5 mm; zone of inhibition at 50 µg/disc (E. coli/cph): 10 mm; zone of inhibition at 100 µg/disc (E. coli/cph): 11 mm; zone of inhibition at 200 µg/disc (E. coli/cph): 12 mm; phosphorylation by Cph001 in couple enzyme assay (Cph001 [2]): only capable of phosphorylating VIO; absorbance at 340 nm, Average of triplicate (Cph001 [2]; time 00:00:00): 1.495; absorbance at 340 nm, Average of triplicate (Cph001 [2]; time 00:01:00): 1.515; absorbance at 340 nm, Average of triplicate (Cph001 [2]; time 00:02:00): 1.474; absorbance at 340 nm, Average of triplicate (Cph001 [2]; time 00:03:00): 1.3778; absorbance at 340 nm, Average of triplicate (Cph001 [2]; time 00:04:00): 1.2968; absorbance at 340 nm, Average of triplicate (Cph001 [2]; time 00:05:00): 1.217; absorbance at 340 nm, Average of triplicate (Cph001 [2]; time 00:06:00): 1.012; absorbance at 340 nm, Average of triplicate (Cph001 [2]; time 00:07:00): 0.8175; absorbance at 340 nm, Average of triplicate (Cph001 [2]; time 00:08:00): 0.6031; absorbance at 340 nm, Average of triplicate (Cph001 [2]; time 00:09:00): 0.4177; absorbance at 340 nm, Average of triplicate (Cph001 [2]; time 00:10:00): 0.2691; absorbance at 340 nm, Average of triplicate (Cph001 [2]; time 00:11:00): 0.254; absorbance at 340 nm, Average of triplicate (Cph001 [2]; time 00:12:00): 0.2155; absorbance at 340 nm, Average of triplicate (Cph001 [2]; time 00:13:00): 0.1675; absorbance at 340 nm, Average of triplicate (Cph001 [2]; time 00:14:00): 0.1401; absorbance at 340 nm, Average of triplicate (Cph001 [2]; time 00:15:00): 0.1225; Kd (Cph001 [4]): 4.18 ± 0.68 µM

What does the source list for Nc1ncnc2c1ncn2C1OC(COP(=O)(O)OP(=O)(O)OP(=O)(O)O)C(O)C1O (centres unmarked) [ATP]?
initial velocity, Figure 3c iii, Triplicate (Cph001 [2]; 0.01 mM ATP): 0.0001332 and 0.000121 and 0.0001197; initial velocity, Figure 3c iii, Triplicate (Cph001 [2]; 0.02 mM ATP): 0.0001161 and 0.0001344 and 0.0001332; initial velocity, Figure 3c iii, Triplicate (Cph001 [2]; 0.05 mM ATP): 0.0002407 and 0.0001564 and 0.0001833; initial velocity, Figure 3c iii, Triplicate (Cph001 [2]; 0.1 mM ATP): 0.0002407 and 0.0002053 and 0.0001552; initial velocity, Figure 3c iii, Triplicate (Cph001 [2]; 0.2 mM ATP): 0.0003336 and 0.0003519 and 0.0003385; initial velocity, Figure 3c iii, Triplicate (Cph001 [2]; 0.4 mM ATP): 0.0003201 and 0.0003715 and 0.0003678; initial velocity, Figure 3c iii, Triplicate (Cph001 [2]; 0.6 mM ATP): 0.0004387 and 0.0003983; initial velocity, Figure 3c iii, Triplicate (Cph001 [2]; 0.8 mM ATP): 0.0003825 and 0.0004668 and 0.0004985; kcat, phosphate donor varied (Cph001 [2]): 0.00967 ± 0.0005 s⁻¹; Km (Cph001 [2]): 70 ± 20 µM

What does the source list for CC[C@H]1OC(=O)[C@H](C)[C@@H](O[C@H]2C[C@@](C)(OC)[C@@H](O)[C@H](C)O2)[C@H](C)[C@@H](O[C@@H]2O[C@H](C)C[C@H](N(C)C)[C@H]2O)[C@](C)(O)C[C@@H](C)C(=O)[C@H](C)[C@@H](O)[C@]1(C)O [Ery, erythromycin]?
zone of inhibition at 12.5 µg/disc [3]: 24 mm; zone of inhibition at 50 µg/disc [3]: 27 mm; zone of inhibition at 100 µg/disc [3]: 29 mm; zone of inhibition at 200 µg/disc [3]: 31 mm; zone of inhibition at 12.5 µg/disc (E. coli/cph001; [5]): 23 mm; zone of inhibition at 200 µg/disc (E. coli/cph001; [5]): 32 mm; zone of inhibition at 12.5 µg/disc (E. coli/mphB): 15.5 mm; zone of inhibition at 50 µg/disc (E. coli/mphB): 21.5 mm; zone of inhibition at 100 µg/disc (E. coli/mphB): 23 mm; zone of inhibition at 200 µg/disc (E. coli/mphB): 24 mm; phosphorylation by Cph001 in couple enzyme assay (Cph001 [2]): only capable of phosphorylating VIO

Which results are given for Nc1nc2c(ncn2[C@@H]2O[C@H](COP(=O)(O)OP(=O)(O)OP(=O)(O)O)[C@@H](O)[C@H]2O)c(=O)[nH]1 [GTP]?
initial velocity, Figure 3c iv, Triplicate (Cph001 [2]; 0.02 mM GTP): 9.164e-5 and 7.331e-5 and 0.0001283; initial velocity, Figure 3c iv, Triplicate (Cph001 [2]; 0.05 mM GTP): 9.164e-5 and 0.0001521 and 0.0001466; initial velocity, Figure 3c iv, Triplicate (Cph001 [2]; 0.1 mM GTP): 0.0002053 and 0.0001576 and 0.0002218; initial velocity, Figure 3c iv, Triplicate (Cph001 [2]; 0.2 mM GTP): 0.0003519 and 0.0003501 and 0.0003886; initial velocity, Figure 3c iv, Triplicate (Cph001 [2]; 0.4 mM GTP): 0.0005242 and 0.0006232 and 0.0004326; initial velocity, Figure 3c iv, Triplicate (Cph001 [2]; 0.6 mM GTP): 0.0006012 and 0.0005554 and 0.000493; initial velocity, Figure 3c iv, Triplicate (Cph001 [2]; 1 mM GTP): 0.0006525 and 0.0006232 and 0.000592; initial velocity, Figure 3c iv, Triplicate (Cph001 [2]; 2 mM GTP): 0.0006287 and 0.0006397 and 0.0005095; kcat, phosphate donor varied (Cph001 [2]): 0.0152 ± 0.00067 s⁻¹; Km (Cph001 [2]): 180 ± 30 µM
